Patent US20090069418A1, “Compositions and Methods for the Treatment of Disorders Associated with Aberrant Vasodilation” (priority 2007, published 2009)
Like-named read-outs stand apart in the source and are kept apart here.

System: mice
Assay type: in vivo
Source text: Male mice between the ages of 16-24 weeks were anesthetized with isoflurane (induction 4-5 vol %; maintenance 1-2 vol %), intubated with a 20G plastic IV catheter, and mechanically ventilated using a rodent ventilator (Inspira, volume-controlled, Harvard Apparatus, MA). ECG and rectal temperature were continuously monitored using a PC-based recording device (PowerLab 8/30, ADInstruments, Colorado Springs, Colo.). The animals were positioned in a right lateral decubital position on a heating pad and rectal temperature was maintained at 37° C. throughout the experiment. A PE-10 catheter was inserted into the left jugular vein for intravenous drug infusion. Using a dissecting microscope, a left-sided thoracotomy was performed in the 4th intercostal space. […] A ligature (8-0 Monosof MV-135-4, ⅜ 5 mm tapered needle, Syneture, Norwalk, Colo.) was placed around the left coronary artery (LCA) approximately 2 mm distal to the left atrial margin. The suture was fed through a short section of PE-10 tubing to form a snare to allow temporary occlusion. The LCA was occluded for 40 minutes; occlusion was confirmed by persistent ECG changes during occlusion and visual paling of the left ventricle (LV). After 40 minutes the snare was released and reperfusion was confirmed with visual hyperemia of the LV and return of the ECG changes. After 2 hours of reperfusion the LCA was re-occluded and fluorescent polymer microspheres (0.4% solution, diameter 1-10 μm; Duke Scientific Corporation, Palo Alto, Calif.) were infused via needle puncture of the LV apex. […] Heart was then excised, rinsed in normal saline, and the right and left atria were removed under the dissecting microscope. The remaining left and right ventricles were weighed and then sliced into seven sections (d=1 mm) for imaging and staining.
Heart sections were immediately photographed with a digital camera (Canon Powershot A620) under UV light for determination of AAR. Infarct size (I) was determined by staining the heart sections in 1% 2,3,5 triphenyltetrazolium chloride (TTC) in phosphate buffer at pH 7.4 for 10 minutes, followed by 10% neutral buffered formalin (NBF) bath overnight. Pictures were taken the next day under full spectrum light. TTC stained non-infarcted myocardium red, while infarcted myocardium remained white. Both AAR and I areas were calculated in a blinded fashion using standard imaging software (Photoshop Elements 4). A calibration ruler was present in each picture to convert pixels into volume. TTC slices were volume corrected for dehydration following formalin immersion.
The 14,15-EET was obtained from BIOMOL (Plymouth Meeting, Pa.). It was dissolved in a vehicle composed of 100% ethanol and saline (1:3), resulting in a final ethanol solution of 25%. […] SNC-162, a non-peptide δ-opioid receptor agonist, was used for comparison of the magnitude of cardioprotection found within the epoxide pathway. SNC-162 (0.1 μg/g iv over 10 minutes) was dissolved in 10% DMSO.

Question: For `CCCCOC(=O)CCCCCCCCCCCNC(=O)NC12CC3CC(CC(C3)C1)C2` [AUDA-BE, 12-(3-adamantane-1-yl-ureido)-dodecanoic acid butyl ester], which “Infarct Volume” value (PRO (given prior to reperfusion)) is on record?
Answer: 15 ± 3 mm^3

Question: And the “infarct size after myocardial I/R compared to vehicle” value (given before ischemia or before reperfusion)?
Answer: significantly reduced infarct size

Question: What about the “Infarct Volume” value (given prior to LCA occlusion (PRE)) of the same compound?
Answer: 12 ± 2 mm^3
